Laboratory results published in paper PMC9455146, “Effects of Novel Photosynthetic Inhibitor [CuL2]Br2 Complex on Photosystem II Activity in Spinach” (Cells, 2022).

Biological target: T1, D1-protein of the PSII reaction center (QB-plastoquinone-herbicide-binding protein) (Spinacia oleracea, UniProt P69560)
T1 construct: gene psbA; native protein in isolated spinach thylakoids; with photosystem II complex
Assay: PSII chlorophyll fluorescence (PAM) in isolated thylakoids; block of Light 1-induced QA- re-oxidation
Type: biochemical

In the case of CN(C)C(=O)Nc1ccc(Cl)c(Cl)c1 [DCMU, 3-(3,4-dichlorophenyl)-1,1-dimethylurea], the “Concentration blocking Light 1-induced QA- re-oxidation” value is reported as 0.5 µM.
